What was measured:
Type in all cases: cell-based
SLC47A1 (MATE1) [1] = assay: Effect of Rifampicin on SLC47A1 mRNA expression in human skin organoculture (real time PCR); details: Rifampicin 20 μM, 72 hours, p≦0.05
Protocol: (§1) Fresh human skin samples from 3 different donors were used and maintained in organoculture. Four skin biopsies of 6 mm diameter were used per well of 6-well plate, filled with long term skin culture medium (Biopredic, France) (FIG. 1). Skin samples were treated with 20 μM Rifampicin during 3 days. In a separate experiment, skin samples were exposed during one hour every day during 3 days to UV lights via a solar simulator (UVA 110 W/m^2; UVB 20 W/m^2). Untreated skin samples were used as control. The culture plates were kept in a cell culture incubator set at 37° C., 5% CO2 and saturated hygrometry. At the end of treatment period gene expression of SLC transporters was measured as described above.
(§2) After homogenization of skin samples or hepatocytes in lysis buffer (Promega), total RNA was isolated using SV Total RNA Isolation System (Promega), in accordance with the instructions provided by the constructor. RNA concentrations were quantified spectrophotometrically. Quantification of mRNA expression of human SLC transporters was performed using TaqMan PCR techniques (Applied Biosystems). Experiments were carried out on a 7500 real time PCR System (Applied Biosystems) using Assay-on-Demand gene expression products. For this, 500 ng of total RNA were reverse-transcribed using the High Capacity RNA to cDNA Master Mix kit (Applied Biosystems).

SLC47A2 (MATE2) = assay: Effect of Rifampicin on SLC47A2 mRNA expression in human skin organoculture (real time PCR); details: Rifampicin 20 μM, 72 hours
Protocol: as §1, §2

SLC47A1 (MATE1) [2] = assay: Effect of Rifampicin on SLC47A1 mRNA expression in human hepatocytes in primary culture (real time PCR); details: Rifampicin 20 μM, 72 hours
Protocol: as §2

SMILES: CO[C@H]1/C=C/O[C@@]2(C)Oc3c(C)c(O)c4c(O)c(c(/C=N/N5CCN(C)CC5)c(O)c4c3C2=O)NC(=O)/C(C)=C\C=C\[C@H](C)[C@H](O)[C@@H](C)[C@@H](O)[C@@H](C)[C@H](OC(C)=O)[C@@H]1C [Rifampicin]
- decrease in MATE1 expression (SLC47A1 (MATE1) [1]): 44%
- decrease in MATE2 expression (SLC47A2 (MATE2)): 30%
- decrease in expression of SLC47A1 (MATE1) (SLC47A1 (MATE1) [2]): 48%
